# According to patent US4071559A, “Pharmaceutically active 2-omega-aminoalkoxydiphenyls” (Mitsubishi Chemical Industries Limited, priority 1975, dated 1978):
# Structures can show the parent of a compound that is named as a salt.
# Columns and labels:
# [1] = test system: neurological deficit; assay: Traction test (neurological deficit; muscle relaxant action; CNS depressant activity); type: in vivo; details: mice; for ED50: Mus musculus, ip, traction test
# [2] = test system: spontaneous motor activity; assay: Spontaneous motor activity by ANIMEX apparatus (CNS depressant activity); type: in vivo; details: Mus musculus, ip, mice, i.p., read-out: Spontaneous Motor Activity Depression ED50
# [3] = test system: electroshock induced tonic extensor; assay: Antagonism of electroshock induced tonic extensor (anticonvulsant activity); type: in vivo; details: Mus musculus, ip; mice; dose which prevents 50% of response
# [4] = test system: tremorine induced tremor; assay: Tremorine induced tremor in mice (central anticholinergic effect); type: in vivo; details: for ED50: Mus musculus, ip, tremorine induced tremor, read-out: Antitremorine Effect ED50
# Experimental: (§1) The compounds were administered intraperitoneally and the activities of the compounds were compared with those of Amitriptyline.
# [5] = in vivo; details: mouse, ip
# [6] = test system: reserpine induced hypothermia; assay: Antagonism of reserpine induced hypothermia in mice (antireserpine / antidepressant activity); type: in vivo; details: i.p.; for Antireserpine activity, Relative Potency: reserpine 5 mg/kg i.p., Amitriptyline = 1
# Experimental: as §1
# [7] = test system: mice; details: i.p., compared with Amitriptyline
smiles,measurement,setting,value
NCCCCOc1ccccc1-c1ccccc1 [2-(4-aminobutoxy)diphenyl hydrochloride],ED50,[1],50 mg/kg
same,ED50,[2],40 mg/kg
same,ED50,[3],14 mg/kg
same,ED50,[4],60 mg/kg
same,LD50,[5],137 mg/kg
same,"Antireserpine activity, Relative Potency",[6],0.59
CN(C)CCCCOc1ccccc1-c1ccccc1 [2-(4-dimethylaminobutoxy)diphenyl hydrochloride],LD50,[5],100 mg/kg
same,"Antireserpine activity, Relative Potency",[6],0.45
CNCCCCOc1ccccc1-c1ccccc1 [2-(4-methylaminobutoxy)diphenyl hydrochloride],ED50,[1],40 mg/kg
same,CNS depressant action (in words),"[1]; i.p., traction test and spontaneous motor activity",weak
same,toxicity (in words),[7],low toxicity
same,ED50,[2],30 mg/kg
same,ED50,[3],14 mg/kg
same,ED50,[4],20 mg/kg
same,anticholinergic action (in words),"[4]; i.p., compared with Amitriptyline",weak
same,LD50,[5],78 mg/kg
same,antireserpine activity (in words),[6]; compared with Amitriptyline,comparable to that of Amitriptyline
same,"Antireserpine activity, Relative Potency",[6],0.99
